Test results published in patent US6555547B1, “Method for treating a patient with neoplasia by treatment with a vinca alkaloid derivative” (Cell Pathways, Inc., priority 2000, dated 2003).
“Also recorded” adds a separate entry of the source.

How the values were obtained:
[1] = tested on: Peak B from SW480, HTB-26, and LnCAP; experiment: Peak B cGMP PDE activity from SW480, HTB-26 and LnCAP (FPLC); type: biochemical; conditions: 100 nM; Peak B from SW480, HTB-26, LnCAP
Method: The novel Peak B was also isolated from two other neoplastic cell lines, a breast cancer cell line, HTB-26, and a prostate cancer cell line, LnCAP, by a procedure similar to the one above used to isolate it from SW480. The protocol was modified in several respects. To provide even greater reproducibility to allow comparison of different cell lines, a Pharmacia AKTA FPLC was used to control sample loading and elution on an 18 mL DEAE TrisAcryl M column. SW840 was run by this same procedure multiple times to provide a reference of Peak B. 200-400 million cells of SW480 were used for the profiles. 70 million cells of LnCAP were used for a profile (see FIGS. 22 and 23), and in a separate experiment 32 million cells of HTB-26 were used for a profile (see FIGS. 20 and 21). After re-suspending cells in homogenization buffer, samples were manually homogenized. FPLC buffer A was 8 mM TRIS-acetate, 5 mM Mg acetate, 0.1 mM EDTA, pH 7.5 and buffer B was 8 mM TRIS-acetate, 5 mM Mg acetate, 0.1 mM EDTA, 1 M Na acetate, pH 7.5. Supernatants were loaded onto the column at 1 mL per minute, followed by a wash with 60 mL buffer A at 1 mL per minute. A gradient was run from 0-15% buffer B in 60 mL, 15-50% buffer B in 60 mL, and 50-100% buffer B in 16 mL. During the gradient 1.5 mL fractions were collected.

[2] = target: T1, cGMP binding sites of GST-cGB-PDE5 fusion protein (Homo sapiens, UniProt O76074); experiment: cGMP binding assay; conditions: 3H-cGMP 2 μM
T1 construct: made in house; host or cells: E. coli BL21 (DE3)

[3] = Acute toxicity study in rats; type: in vivo
[4] = Toxicity study in dogs (capsules); type: in vivo
[5] = Seven-day dose-range finding study in rats; type: in vivo
[6] = tested on: LNCaP prostate tumor cell line; experiment: Histone-associated DNA fragmentation in prostate tumor cells; type: cell-based; conditions: 50 μM, up to 4 days, free base
Method: The androgen-sensitive prostate tumor cell line, LNCaP (from ATCC (Rockville, Md.)) was propagated under standard conditions using […] medium containing 5% fetal calve serum and 2 mM glutamine. Primary prostate epithelial cell cultures (PrEC) derived from normal prostate (from Clonetics Inc. (San Diego, Calif.)) were grown under the same conditions as the tumor cell line except a serum-free medium optimized for the growth of such cultures was used (Clonetics Inc). For the experiments, LNCaP or PrEC cells were seeded in 96 well plates at a density of 10,000 cells per well. […] After various drug treatment times (4, 24, 48, 72, or 99 hours) the cells were lysed and processed for measurement of histone-associated DNA as an indicator of apoptotic cell death (see, Piazza et al., Cancer Research 57: 2452-2459, 1997).

[7] = tested on: PrEC primary prostate epithelial cell cultures; experiment: Histone-associated DNA fragmentation in normal prostate epithelial cells; type: cell-based; conditions: 50 μM, up to 4 days
Method: The androgen-sensitive prostate tumor cell line, LNCaP (from ATCC (Rockville, Md.)) was propagated under standard conditions using […] medium containing 5% fetal calve serum and 2 mM glutamine. Primary prostate epithelial cell cultures (PrEC) derived from normal prostate (from Clonetics Inc. (San Diego, Calif.)) were grown under the same conditions as the tumor cell line except a serum-free medium optimized for the growth of such cultures was used (Clonetics Inc). For the experiments, LNCaP or PrEC cells were seeded in 96 well plates at a density of 10,000 cells per well. After 24 hours, the cells were treated with either vehicle (0.1% DMSO) or 50 μM Compound I (free base) solubilized in DMSO. After various drug treatment times (4, 24, 48, 72, or 99 hours) the cells were lysed and processed for measurement of histone-associated DNA as an indicator of apoptotic cell death (see, Piazza et al., Cancer Research 57: 2452-2459, 1997).

[8] = tested on: Calu-6 adenocarcinoma cell line; experiment: Cell growth, alone and in combination with vinca alkaloid; type: cell-based, human; conditions: for Lower concentration required on continuous exposure than 1-hour exposure for same effect: FIGS. 28-29, 32-33; for Effect when combined with vinca alkaloid: both cell lines (Calu-6, H460), 1-hour and continuous exposures
Method: (§1) Exisulind and Compound I were analyzed using two human lung cancer cell lines; H460, a large cell carcinoma with a doubling time of 16 hours, and Calu-6, an adenocarcinoma with a doubling time of 21 hours. Exisulind and Compound I were analyzed alone and in combination with the vinca alkaloid, Navelbine™ vinorelbine. The cytotoxic agents were administered for 1 hour, while exisulind and Compound I were administered for either 1 hour or given as a continuous exposure.
(§2) Cells were plated on day 0 and allowed to attach. On day 1, the cells were exposed to one of the cytotoxic agents dissolved in media pre-warmed to 37° C. and incubated at 37° C. for 1 hour. The cells were then washed twice and re-fed pre-warned media with or without either exisulind or Compound I and incubated for one hour at 37° C. After the one-hour incubation, the cells were washed twice, re-fed, and returned to the incubator; the continuous exposure cultures were not washed and re-fed. Appropriate controls were included for each condition. […] All data points were done in triplicate and the mean graphed as a percent of control growth.
(§3) Exisulind and Compound I were first dissolved in DMSO and brought to the desired concentrations by slowly adding warm media to the drug-DMSO solution to prevent precipitation.

[9] = tested on: H460 large cell carcinoma cell line; experiment: as above; type: cell-based, human
Method: as §1, §2, §3

[10] = rat, in vivo, 2000 mg/kg/day
[11] = in vivo
[12] = tested on: PKG activity in HCT116 colon cancer cells; experiment: PKG assay on lysates of drug-treated HCT116 cells; type: cell-based
Text: To test the effect of cGMP-specific PDE inhibition on neoplasia containing the β-catenin mutation, HCT116 colon cancer cells were employed. HCT116 is known to contain the β-catenin mutation, but is known not to contain the APC mutation.
The same procedure is used to grow the HCT116 cells as is used in the SW480 procedure described above. In this experiment, only exisulind and controls were used.

[13] = tested on: β-catenin and PKG in SW480 cells; experiment: Western blot of β-catenin and PKG in SW480 cells; type: cell-based, human; conditions: SW480, 48 hours
Method: SW480 cells treated with exisulind as described previously are harvested from the microfuge tubes by rinsing once with ice-cold PBS. The cells are lysed by modified RIPA buffer for 15 minutes with agitation. The cell lysate is spun down in a cold room. The supernatants are transferred to fresh microcentrifuge tubes immediately after spinning. BioRad DC Protein Assay (Temecula, Calif.) is performed to determine the protein concentrations in samples. The samples are normalized for protein concentration, as described above.
50 μg of each sample is loaded onto a 10% SDS gel. SDS-PAGE is performed, and the proteins then are transferred to a nitrocellulose membrane. The blotted nitrocellulose membrane is blocked in freshly prepared TBST containing 5% nonfat dry milk for one hour at room temperature with constant agitation.
A goat-anti-PKG primary antibody is diluted to the recommended concentration/dilution in fresh TBST/5% nonfat dry milk. The nitrocellulose membrane is placed in the primary antibody solution and incubated one hour at room temperature with agitation. The nitrocellulose membrane is washed three times for ten minutes each with TBST. […]
This observation was made by culturing SW480 cells with either 200, 400 or 600 μM exisulind or vehicle (0.1% DMSO). […] Immuno-reactive protein can be detected by Western blot. […]

[14] = Side effects of exisulind in patients; type: in vivo
Text: This effect is reversible, and liver enzymes return to normal levels when the administered dose of exisulind returns to the traditionally recommended level or when treatment is discontinued. The most serious side effects of vinca alkaloid derivatives, on the other hand, are myelosuppressions.

T1 sequence (O76074 46-539 limits assumed): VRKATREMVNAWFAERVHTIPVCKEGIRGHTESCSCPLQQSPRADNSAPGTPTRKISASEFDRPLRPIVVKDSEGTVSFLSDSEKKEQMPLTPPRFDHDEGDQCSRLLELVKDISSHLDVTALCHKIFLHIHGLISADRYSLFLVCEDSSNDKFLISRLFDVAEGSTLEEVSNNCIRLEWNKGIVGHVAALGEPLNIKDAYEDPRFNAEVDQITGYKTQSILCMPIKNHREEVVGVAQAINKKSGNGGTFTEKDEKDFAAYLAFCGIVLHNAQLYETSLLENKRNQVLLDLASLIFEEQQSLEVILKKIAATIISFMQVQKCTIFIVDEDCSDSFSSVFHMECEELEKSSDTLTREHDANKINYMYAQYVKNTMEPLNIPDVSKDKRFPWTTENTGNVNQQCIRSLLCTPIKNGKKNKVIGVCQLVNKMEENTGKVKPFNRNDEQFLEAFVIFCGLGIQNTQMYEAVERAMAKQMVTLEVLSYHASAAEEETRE

## O=C(O)C1CCN(c2nc(NCc3ccc4c(c3)OCO4)c3cc(Cl)ccc3n2)CC1 [Compound E4021]
[1]
  Sensitivity of Peak B cGMP PDE activity: resistant
[2]
  Competition with cGMP for binding of GST-cGB-PDE5: do not bind to the cGMP binding sites of PDE5

## CC1=C(CC(=O)NCc2ccccc2)c2cc(F)ccc2/C1=C\c1ccncc1.Cl [Compound I, (Z)-5-fluoro-2-methyl-(4-pyridylidene)-3-(N-benzyl)indenylacetamide hydrochloride]
[3]
  intraperitoneal LD50: greater than 1000 mg/kg
  oral LD50: > 4000 mg/kg
[3]; intraperitoneal, 1000 mg/kg
  Acute toxicity, single intraperitoneal dose: reduced body weight gain, with mesenteric adhesions seen in some animals
[3]; oral, 4000 mg/kg
  Acute toxicity, single oral dose: body weight gains were slightly reduced
[3]; oral, up to and including 2000 mg/kg
  Acute toxicity, single oral doses: no observable signs of toxicity
[4]
  oral LD50: greater than 1000 mg/kg
[4]; 1000 mg/kg
  Toxicity, single dose in capsules: no signs of toxicity
[4]; 1000 mg/kg/day
  Drug-related effects, single dose and seven consecutive doses: At no time in either dosing phase were any obvious signs of drug-related effects observed
[5]; 50 mg/kg/day
  Seven-day toxicity findings: no observable signs of toxicity
[5]; 500 mg/kg/day
  Seven-day toxicity findings: treatment-related effects were limited to an increase in absolute and relative liver weights in female rats
[5]; 2000 mg/kg/day
  Seven-day toxicity findings: labored breathing and/or abnormal respiratory sounds, decreased weights gains and food consumption in male rats, and increased liver weights in female rats
[5]; any dose level
  Seven-day hematology, blood chemistry, microscopic pathology: No hematological or blood chemistry changes nor any microscopic pathology changes
[6]
  Histone-associated fragmented DNA: A significant increase in fragmented DNA was detected after 24 hours of treatment; also recorded: time-dependent increase in the amount of histone-associated fragmented DNA
[7]
  DNA fragmentation: did not affect DNA fragmentation for up to 4 days of treatment
[8]; Calu-6
  Strength in inhibiting cell growth relative to exisulind: 80-100 fold
[8]; Calu-6, 1-hour exposure, 5 mcg/ml
  % of control growth: 47%
[8]
  Lower concentration required on continuous exposure than 1-hour exposure for same effect: 25 fold
  Effect when combined with vinca alkaloid: additive cytotoxic effect
[9]
  Strength in inhibiting cell growth relative to exisulind: 80-100 fold
[10]
  28-day histopathological evaluation: traces of follicular cell hypertrophy, increased numbers of mitotic figures (suggestive of possible cell proliferation) in the thyroid gland and mild centrilobular hypertrophy in the liver
  28-day liver weights: statistically significant increase in liver weights
  28-day thyroid weights: statistically significant increases in thyroid weights
[11]
  Safety: safe in animal studies and in a single, escalating dose human study

## CC1=C(CC(=O)O)c2cc(F)ccc2/C1=C\c1ccc(S(C)(=O)=O)cc1 [Exisulind, 5-fluoro-2-methyl-1-(p-methylsulfonylbenzylidene)-3-indenylacetic acid]
[12]
  PKG activation relative to control: yielded PKG that was phosphorylated to a greater extent than the corresponding controls
[13]
  β-catenin and PKG levels by Western blot: causes the drop of β-catenin and the increase of PKG
[2]
  Competition with cGMP for binding of GST-cGB-PDE5: do not bind to the cGMP binding sites of PDE5
[8]
  Lower concentration required on continuous exposure than 1-hour exposure for same effect: ~10 fold
  Effect when combined with vinca alkaloid: additive cytotoxic effect
[8]; Homo sapiens, Calu-6, 1 h, Calu-6, 1-hour exposure, 400 μg/ml, read-out: % of control growth
  activity at 400 µg/mL: 54%
[14]; 300-600 mg/day
  Side effects at recommended dose: no significant side effects
[14]; doses higher than the recommended therapeutic levels, reversible
  Side effects above recommended dose: can lead to elevated levels of liver enzymes
